Experimental data from patent US10221139B2, “Inhibitors of histone demethylases” (Gilead Sciences, Inc., priority 2012, dated 2019).

Assays:
Assay type in all cases: biochemical
[1] = molecular target: T1, JMJD1B (KDM3B) (Homo sapiens, UniProt Q7LBC6); experiment: Histone lysine demethylase AlphaLISA assay, JMJD1B; settings: substrate BK9M2
T1 construct: 842-1761; host or cells: Bac (baculovirus)
T1 sequence (Q7LBC6 842-1761): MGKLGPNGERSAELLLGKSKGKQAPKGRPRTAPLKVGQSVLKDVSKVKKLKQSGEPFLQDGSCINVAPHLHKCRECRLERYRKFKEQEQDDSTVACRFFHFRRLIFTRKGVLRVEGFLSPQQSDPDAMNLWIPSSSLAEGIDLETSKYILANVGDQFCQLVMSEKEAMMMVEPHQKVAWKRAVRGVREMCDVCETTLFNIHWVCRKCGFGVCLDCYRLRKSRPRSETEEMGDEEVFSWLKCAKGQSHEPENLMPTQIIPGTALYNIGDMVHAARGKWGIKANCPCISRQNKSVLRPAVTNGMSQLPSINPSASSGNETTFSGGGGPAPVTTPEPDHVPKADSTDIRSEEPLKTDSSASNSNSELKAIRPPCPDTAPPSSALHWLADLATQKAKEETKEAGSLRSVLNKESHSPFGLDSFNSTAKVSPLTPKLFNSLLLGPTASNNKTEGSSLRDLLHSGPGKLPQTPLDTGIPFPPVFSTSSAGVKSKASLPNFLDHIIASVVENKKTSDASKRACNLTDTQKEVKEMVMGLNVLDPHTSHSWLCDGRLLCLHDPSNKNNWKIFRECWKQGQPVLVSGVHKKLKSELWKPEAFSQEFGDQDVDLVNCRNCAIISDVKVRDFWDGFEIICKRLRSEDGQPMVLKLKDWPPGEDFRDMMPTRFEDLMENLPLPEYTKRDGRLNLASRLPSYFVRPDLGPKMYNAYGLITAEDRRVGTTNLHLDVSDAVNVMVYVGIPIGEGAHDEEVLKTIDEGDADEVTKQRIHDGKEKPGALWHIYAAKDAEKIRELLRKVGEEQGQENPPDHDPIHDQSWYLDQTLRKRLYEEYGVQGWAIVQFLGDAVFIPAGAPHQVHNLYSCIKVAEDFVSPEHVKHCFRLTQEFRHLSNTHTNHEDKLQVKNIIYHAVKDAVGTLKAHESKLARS
Method: (§1) Example 2: Histone Lysine Demethylase AlphaLISA Assays for IC50 Value Determination
(§2) Assays are performed analogously to the protocol described by Perkin Elmer (Roy et al. Perkin Elmer Technical Note: AlphaLISA #12, April 2011).
(§3) Enzymes are dissolved in enzyme buffer and incubated for 10 min before 5 μL is added to 5 μL 3% DMSO solutions of compounds in enzyme buffer. Incubated for another 10 minutes, before 5 μL substrate solution is added and the reaction mixture is incubated at room temperature for the given period. 10 μL acceptor beads, suspended at given dilutions in Epigenetic Buffer (Perkin Elmer AL008) from stock, are added and the suspension is incubated 60 minutes in the dark at room temperature, before 10 μL suspension (at the given dilutions in Epigenetic Buffer) of streptavidin donor beads (Perkin Elmer 6760002) in Epigenetic Buffer is added. After incubation at room temperature in the dark the plates are read. Reaction conditions are seen in Table 2b.

[2] = molecular target: T2, JMJD3 (KDM6B) (Homo sapiens, UniProt O15054); experiment: Histone lysine demethylase AlphaLISA assay, JMJD3; settings: substrate BK27M3
T2 construct: 1043-end; purchased BPS; host or cells: Bac (baculovirus)
Method: as §1, §2, §3

[3] = molecular target: T3, JARID1C (KDM5C) (Homo sapiens, UniProt P41229); experiment: Histone lysine demethylase AlphaLISA assay, JARID1C; settings: substrate H3K4M3B
T3 construct: 2-1560; purchased BPS; host or cells: Bac (baculovirus)
Method: as §1, §2, §3

[4] = molecular target: T4, JMJD2B (KDM4B) (Homo sapiens, UniProt O94953); experiment: Histone lysine demethylase AlphaLISA assay, JMJD2B; settings: substrate BK9M3, read-out: JMUD2B IC50
T4 construct: 2-500; purchased BPS; host or cells: Bac (baculovirus)
T4 sequence (O94953 2-500): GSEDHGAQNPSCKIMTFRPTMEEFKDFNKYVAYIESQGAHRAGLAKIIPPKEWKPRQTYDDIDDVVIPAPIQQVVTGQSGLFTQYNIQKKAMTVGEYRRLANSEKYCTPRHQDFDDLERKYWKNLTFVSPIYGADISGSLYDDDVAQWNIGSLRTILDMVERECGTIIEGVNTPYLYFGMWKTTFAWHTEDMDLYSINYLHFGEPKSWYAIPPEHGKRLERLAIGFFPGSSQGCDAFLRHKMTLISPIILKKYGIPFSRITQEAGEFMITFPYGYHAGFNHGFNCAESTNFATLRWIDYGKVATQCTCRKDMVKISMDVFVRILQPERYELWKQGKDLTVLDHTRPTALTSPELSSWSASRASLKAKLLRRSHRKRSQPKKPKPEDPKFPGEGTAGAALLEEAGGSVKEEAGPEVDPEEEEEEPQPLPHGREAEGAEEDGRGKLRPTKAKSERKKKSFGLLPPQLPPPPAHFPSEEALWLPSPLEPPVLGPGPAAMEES
Method: as §1, §2, §3

[5] = molecular target: T5, PLU1 (KDM5B) (Homo sapiens, UniProt Q9UGL1); experiment: Histone lysine demethylase AlphaLISA assay, PLU1; settings: substrate H3K4M3B
T5 construct: 1-809; host or cells: E. coli
T5 sequence (Q9UGL1 1-809): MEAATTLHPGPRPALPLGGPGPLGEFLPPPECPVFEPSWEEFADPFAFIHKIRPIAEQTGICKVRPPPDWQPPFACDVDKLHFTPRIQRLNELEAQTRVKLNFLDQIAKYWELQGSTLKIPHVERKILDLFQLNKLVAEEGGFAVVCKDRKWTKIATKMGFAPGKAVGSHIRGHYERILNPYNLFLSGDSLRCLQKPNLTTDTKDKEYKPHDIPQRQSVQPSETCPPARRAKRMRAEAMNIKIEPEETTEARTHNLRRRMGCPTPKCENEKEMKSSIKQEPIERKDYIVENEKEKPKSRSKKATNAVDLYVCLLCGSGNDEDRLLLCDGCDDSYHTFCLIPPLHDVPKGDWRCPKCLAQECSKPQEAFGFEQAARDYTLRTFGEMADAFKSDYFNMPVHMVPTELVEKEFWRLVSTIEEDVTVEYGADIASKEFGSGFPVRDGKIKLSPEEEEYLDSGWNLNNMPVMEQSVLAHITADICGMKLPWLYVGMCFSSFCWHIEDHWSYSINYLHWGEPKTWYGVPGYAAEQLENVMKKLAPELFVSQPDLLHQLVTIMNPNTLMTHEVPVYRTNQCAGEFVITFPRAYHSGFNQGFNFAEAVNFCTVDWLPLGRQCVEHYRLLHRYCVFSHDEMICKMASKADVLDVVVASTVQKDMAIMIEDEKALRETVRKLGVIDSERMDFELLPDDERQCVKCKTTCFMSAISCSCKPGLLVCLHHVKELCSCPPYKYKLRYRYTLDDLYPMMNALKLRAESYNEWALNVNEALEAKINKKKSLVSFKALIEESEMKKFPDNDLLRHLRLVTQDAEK
Summary of the method: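 AlphaLISA read-out, IC50. Enzyme 10 min preinc → + cpd (3% DMSO soln) 10 min → + substrate, RT → acceptor beads 60 min dark RT → streptavidin donor beads, dark RT → read.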

T2 sequence (O15054 1043-1682 isoform O15054-1 limits assumed): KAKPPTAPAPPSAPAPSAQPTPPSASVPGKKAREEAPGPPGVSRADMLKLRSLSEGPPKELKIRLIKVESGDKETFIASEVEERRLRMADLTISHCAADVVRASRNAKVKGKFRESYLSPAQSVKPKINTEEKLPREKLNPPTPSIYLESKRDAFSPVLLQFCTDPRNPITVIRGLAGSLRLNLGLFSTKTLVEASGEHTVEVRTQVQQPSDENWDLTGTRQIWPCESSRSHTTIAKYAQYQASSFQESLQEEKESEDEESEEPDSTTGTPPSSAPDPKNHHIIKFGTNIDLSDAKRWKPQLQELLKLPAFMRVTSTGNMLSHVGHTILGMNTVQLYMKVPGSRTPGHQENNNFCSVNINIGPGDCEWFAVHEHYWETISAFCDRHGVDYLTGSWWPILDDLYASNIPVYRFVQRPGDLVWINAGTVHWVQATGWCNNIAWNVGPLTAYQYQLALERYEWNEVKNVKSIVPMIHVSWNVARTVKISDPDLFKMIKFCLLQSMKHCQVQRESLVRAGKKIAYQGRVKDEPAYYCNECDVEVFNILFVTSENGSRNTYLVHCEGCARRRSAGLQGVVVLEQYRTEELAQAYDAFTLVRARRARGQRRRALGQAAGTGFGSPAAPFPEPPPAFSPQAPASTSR
T3 sequence (P41229 2-1560): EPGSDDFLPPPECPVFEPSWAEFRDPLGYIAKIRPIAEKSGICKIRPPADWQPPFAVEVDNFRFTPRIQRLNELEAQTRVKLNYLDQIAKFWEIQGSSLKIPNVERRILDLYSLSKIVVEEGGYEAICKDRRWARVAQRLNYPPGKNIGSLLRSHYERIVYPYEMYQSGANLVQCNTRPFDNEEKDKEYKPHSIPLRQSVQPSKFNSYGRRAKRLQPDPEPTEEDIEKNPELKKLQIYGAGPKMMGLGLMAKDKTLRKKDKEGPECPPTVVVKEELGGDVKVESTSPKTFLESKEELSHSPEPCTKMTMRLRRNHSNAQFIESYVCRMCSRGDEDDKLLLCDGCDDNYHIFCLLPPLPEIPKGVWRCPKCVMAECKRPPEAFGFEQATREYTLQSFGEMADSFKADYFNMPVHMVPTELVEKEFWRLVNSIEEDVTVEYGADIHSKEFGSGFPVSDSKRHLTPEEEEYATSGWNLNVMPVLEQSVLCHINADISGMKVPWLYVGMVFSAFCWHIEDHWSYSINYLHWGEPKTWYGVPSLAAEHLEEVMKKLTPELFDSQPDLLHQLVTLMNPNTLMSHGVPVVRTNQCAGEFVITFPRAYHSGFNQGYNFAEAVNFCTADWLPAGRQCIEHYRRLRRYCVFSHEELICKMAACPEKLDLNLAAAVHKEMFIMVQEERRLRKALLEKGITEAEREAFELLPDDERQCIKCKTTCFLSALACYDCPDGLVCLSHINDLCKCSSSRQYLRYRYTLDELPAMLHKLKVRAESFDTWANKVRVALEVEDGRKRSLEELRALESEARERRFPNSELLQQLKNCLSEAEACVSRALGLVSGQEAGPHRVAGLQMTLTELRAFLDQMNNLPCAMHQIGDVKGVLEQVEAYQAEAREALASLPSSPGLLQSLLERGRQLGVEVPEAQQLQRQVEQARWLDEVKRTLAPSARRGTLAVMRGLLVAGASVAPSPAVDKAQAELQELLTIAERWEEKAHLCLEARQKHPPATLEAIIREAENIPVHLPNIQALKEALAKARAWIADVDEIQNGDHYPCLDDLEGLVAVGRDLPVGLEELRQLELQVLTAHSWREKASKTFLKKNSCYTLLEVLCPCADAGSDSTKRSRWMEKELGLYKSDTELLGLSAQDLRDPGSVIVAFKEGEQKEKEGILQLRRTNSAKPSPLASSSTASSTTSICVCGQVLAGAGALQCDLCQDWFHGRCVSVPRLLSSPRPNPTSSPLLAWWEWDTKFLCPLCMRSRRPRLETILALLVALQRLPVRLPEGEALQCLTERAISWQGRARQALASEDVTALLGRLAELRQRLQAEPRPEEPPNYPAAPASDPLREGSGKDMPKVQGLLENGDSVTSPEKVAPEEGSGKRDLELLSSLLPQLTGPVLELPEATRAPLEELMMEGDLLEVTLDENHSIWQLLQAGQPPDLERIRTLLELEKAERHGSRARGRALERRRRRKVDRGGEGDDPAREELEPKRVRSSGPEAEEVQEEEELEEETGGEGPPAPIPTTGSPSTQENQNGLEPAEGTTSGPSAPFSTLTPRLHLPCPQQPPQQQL

For `CCCCN1CCCC1CCNCc1cc(C(=O)O)ccn1` (stereo not drawn) [#34, 2-({[2-(1-butylpyrrolidin-2-yl)ethyl]amino}methyl)pyridine-4-carboxylic acid], the IC50 [1] was at least 1000 nM, the IC50 [2] was at least 1000 nM and the IC50 [3] was under 100 nM. The IC50 [4] was under 100 nM and the IC50 [5] was under 100 nM.

`CCN(CCN(C)C)C(=O)CNCc1cc(C(=O)O)ccn1` [#49, 2-{[({[2-(dimethylamino)ethyl](ethyl)carbamoyl}methyl)amino]methyl}pyridine-4-carboxylic acid] gave an IC50 [1] of at least 1000 nM, an IC50 [2] of at least 1000 nM and an IC50 [3] of under 100 nM. It also gave an IC50 [4] of under 100 nM and an IC50 [5] of under 100 nM.

Molecule `COc1ccccc1CN1CCC(NC(=O)CNCc2cc(C(=O)O)ccn2)CC1` [#29, 2-({[({1-[(2-methoxyphenyl)methyl]piperidin-4-yl}carbamoyl)methyl]amino}methyl)pyridine-4-carboxylic acid] has an IC50 [1] of 100 to 1000 nM, an IC50 [3] of under 100 nM and an IC50 [4] of under 100 nM. The IC50 [5] was under 100 nM.

In the case of `CCCCN(C)C(=O)CNCc1cc(C(=O)O)ccn1` [#14, 2-[({[butyl(methyl)carbamoyl]methyl}amino)methyl]pyridine-4-carboxylic acid], the IC50 [1] is reported as at least 1000 nM, the IC50 [2] is reported as at least 1000 nM and the IC50 [3] is reported as under 100 nM. It also gave an IC50 [4] of under 100 nM and an IC50 [5] of under 100 nM.

Work on “2-({[(1R)-2-hydroxy-1-{methyl[3-(1-methyl-1H-imidazol-2-yl)propyl]carbamoyl}ethyl]amino}methyl)pyridine-4-carboxylic acid [#37]” yielded an IC50 [1] of at least 1000 nM, an IC50 [2] of at least 1000 nM and an IC50 [3] of 100 to 1000 nM. It also gave an IC50 [4] of under 100 nM.

`O=C(O)c1ccnc(CNCC(=O)N2CCCC2)c1` [#13, 2-({[2-oxo-2-(pyrrolidin-1-yl)ethyl]amino}methyl)pyridine-4-carboxylic acid] was tested, and the IC50 [1] was at least 1000 nM, the IC50 [2] was at least 1000 nM and the IC50 [3] was under 100 nM. The IC50 [4] was under 100 nM and the IC50 [5] was under 100 nM.

Work on `CC(C)=CCCC(C)CCN1CCC(NC(=O)CNCc2cc(C(=O)O)ccn2)C1` (stereo not drawn) [#35, 2-{[({[1-(3,7-dimethyloct-6-en-1-yl)pyrrolidin-3-yl]carbamoyl}methyl)amino]methyl}pyridine-4-carboxylic acid] yielded an IC50 [1] of at least 1000 nM, an IC50 [2] of 100 to 1000 nM and an IC50 [3] of under 100 nM. The IC50 [4] was under 100 nM and the IC50 [5] was under 100 nM.
